Experimental data: US11051515B2, “3-acyl-benzamides and their use as herbicides” (Bayer Aktiengesellschaft, priority 2017, dated 2021)

What was measured:
CYPES = assay: Pre-emergence action against CYPES; type: in vivo, Cyperus esculentus; settings: Cyperus esculentus, 504 h; pre-emergence, dosage 320 g/ha, scored visually after 3 weeks vs untreated controls; read-out: Pre-emergence action against CYPES (herbicidal activity)
Procedure, shortened: (§1)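 Seeds sown in sandy loam in wood-fiber pots and covered with soil. Greenhouse growth; visual damage scored after 3 weeks versus untreated controls (100% = dead, 0% = like control).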

ECHCG [1] = assay: Pre-emergence action against ECHCG; type: in vivo, Echinochloa crus-galli
Procedure, shortened: as §1

SETVI [2] = assay: Pre-emergence action against SETVI; type: in vivo, Setaria viridis; settings: Setaria viridis, 504 h; pre-emergence, dosage 320 g/ha, scored visually after 3 weeks vs untreated controls; read-out: SETVI (Table B8, pre-emergence herbicidal activity)
Procedure, shortened: as §1

ABUTH [3] = assay: Pre-emergence action against ABUTH; type: in vivo, Abutilon theophrasti; settings: Abutilon theophrasti, 504 h; pre-emergence, dosage 320 g/ha, scored visually after 3 weeks vs untreated controls; read-out: Pre-emergence action against ABUTH (herbicidal activity)
Procedure, shortened: as §1

AMARE [4] = assay: Pre-emergence action against AMARE; type: in vivo, Amaranthus retroflexus
Procedure, shortened: as §1

MATIN [5] = assay: Pre-emergence action against MATIN; type: in vivo, Matricaria inodora; settings: for Herbicidal efficacy against MATIN: 20 g of a.i./ha
Procedure, shortened: as §1

POLCO [6] = assay: Pre-emergence action against POLCO; type: in vivo, Polygonum convolvulus; settings: Fallopia convolvulus, 504 h; Dosage 320 g/ha, pre-emergence
Procedure, shortened: as §1

STEME [7] = assay: Pre-emergence action against STEME; type: in vivo, Stellaria media
Procedure, shortened: as §1

VIOTR [8] = assay: Pre-emergence action against VIOTR; type: in vivo, Viola tricolor; settings: for Herbicidal efficacy against VIOTR: 20 g of a.i./ha
Procedure, shortened: as §1

VERPE [9] = assay: Pre-emergence action against VERPE; type: in vivo, Veronica persica
Procedure, shortened: as §1

ALOMY = assay: Post-emergence action against ALOMY; type: in vivo, Alopecurus myosuroides; settings: Alopecurus myosuroides, 504 h; Dosage 80 g/ha, post-emergence
Protocol: (§2) Seeds of monocotyledonous and dicotyledonous weed and crop plants are laid out in sandy loam soil in wood-fiber pots, covered with soil and cultivated in a greenhouse under good growth conditions. 2 to 3 weeks after sowing, the test plants are treated at the one-leaf stage. The compounds of the invention, formulated in the form of wettable powders (WP) or as emulsion concentrates (EC), are then sprayed onto the green parts of the plants in the form of an aqueous suspension or emulsion at a water application rate equating to […], with addition of 0.2% wetting agent. After the test plants have been left to stand in the greenhouse under optimal growth conditions for about 3 weeks, the action of the preparations is assessed visually in comparison to untreated controls (herbicidal action in percent (%): 100% activity=the plants have died, 0% activity=like control plants). […] At the same time, inventive compounds leave Gramineae crops such as barley, wheat, rye, millet/Sorghum, corn or rice virtually undamaged when applied post-emergence, even at high active ingredient dosages. In addition, some substances are also harmless to dicotyledonous crops such as soya, cotton, oilseed rape, sugar beet or potatoes. Some of the compounds according to the invention have high selectivity and are therefore suitable for controlling unwanted vegetation in agricultural crops by the post-emergence method. The data of Tables B18 to B34 below illustrate, in an exemplary manner, the […] herbicidal action of the compounds according to the invention, the herbicidal activity being stated in percent.

AVEFA = assay: Post-emergence action against AVEFA; type: in vivo, Avena fatua; settings: Avena fatua, 504 h; post-emergence, dosage 80 g/ha, visual assessment about 3 weeks after treatment vs untreated controls; read-out: Post-emergence action against AVEFA (herbicidal action in percent)
Protocol: as §2

ECHCG [10] = assay: Post-emergence action against ECHCG; type: in vivo, Echinochloa crus-galli; settings: Echinochloa crus-galli, 504 h; post-emergence, dosage 80 g/ha, visual assessment about 3 weeks after treatment vs untreated controls; read-out: Post-emergence action against ECHCG (herbicidal action in percent)
Procedure, shortened: (§3)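 Post-emergence foliar spray on greenhouse plants at the one-leaf stage, using wettable-powder or emulsion-concentrate formulations in water (600 to […], plus 0.2% wetting agent). Damage scored by eye roughly 3 weeks later against untreated plants: 0% = like control, 100% = dead.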

SETVI [11] = assay: Post-emergence action against SETVI; type: in vivo, Setaria viridis; settings: Setaria viridis, 504 h; post-emergence, dosage 80 g/ha, visual assessment about 3 weeks after treatment vs untreated controls; read-out: Post-emergence action against SETVI (herbicidal action in percent)
Procedure, shortened: as §3

ABUTH [12] = assay: Post-emergence action against ABUTH; type: in vivo, Abutilon theophrasti; settings: Abutilon theophrasti, 504 h; post-emergence, dosage 80 g/ha, visual assessment about 3 weeks after treatment vs untreated controls; read-out: Post-emergence action against ABUTH (herbicidal action in percent)
Procedure, shortened: as §3

AMARE [13] = assay: Post-emergence action against AMARE; type: in vivo, Amaranthus retroflexus; settings: Amaranthus retroflexus, 504 h; post-emergence, dosage 80 g/ha, visual assessment about 3 weeks after treatment vs untreated controls; read-out: Post-emergence action against AMARE (herbicidal action in percent)
Procedure, shortened: as §3

MATIN [14] = assay: Post-emergence action against MATIN; type: in vivo, Matricaria inodora
Procedure, shortened: as §3

PHBPU = assay: Post-emergence action against PHBPU; type: in vivo, Pharbitis purpurea; settings: Ipomoea purpurea, 504 h; post-emergence, dosage 80 g/ha
Procedure, shortened: as §3

POLCO [15] = assay: Post-emergence action against POLCO; type: in vivo, Polygonum convolvulus; settings: Fallopia convolvulus, 504 h; post-emergence, dosage 80 g/ha
Procedure, shortened: as §3

STEME [16] = assay: Post-emergence action against STEME; type: in vivo, Stellaria media; settings: Stellaria media, 504 h; post-emergence, dosage 80 g/ha
Procedure, shortened: as §3

VIOTR [17] = assay: Post-emergence action against VIOTR; type: in vivo, Viola tricolor
Procedure, shortened: as §3

VERPE [18] = assay: Post-emergence action against VERPE; type: in vivo, Veronica persica; settings: Veronica persica, 504 h, dosage 80 g/ha
Procedure, shortened: as §3

[19] = Table V8, pre-emergence, 20 g of a.i./ha
[20] = Table V17, post-emergence, 5 g of a.i./ha

CC(=O)c1c(S(C)(=O)=O)ccc(C(=O)Nc2nnnn2C)c1C [1-7]
pest or weed control at 320 g/ha (CYPES): 100% | pest or weed control at 320 g/ha (ECHCG [1]; Echinochloa crus-galli, 504 h, pre-emergence, dosage 320 g/ha, scored visually after 3 weeks vs untreated controls, read-out: Pre-emergence action against ECHCG (herbicidal activity)): 100% | Herbicidal efficacy against ECHCG (ECHCG [1]; [19]): 70 | pest or weed control at 320 g/ha (SETVI [2]): 100% | pest or weed control at 320 g/ha (ABUTH [3]): 100% | pest or weed control at 320 g/ha (AMARE [4]; Amaranthus retroflexus, 504 h, pre-emergence, dosage 320 g/ha, scored visually after 3 weeks vs untreated controls, read-out: Pre-emergence action against AMARE (herbicidal activity)): 100% | Herbicidal efficacy against AMARE (AMARE [4]; [19]): 100 | Herbicidal efficacy against MATIN (MATIN [5]; Table V5, pre-emergence): 90 | Herbicidal efficacy against MATIN (MATIN [5]; Table V8, pre-emergence): 90 | pest or weed control at 320 g/ha (MATIN [5]; Tripleurospermum inodorum, 504 h, Dosage 320 g/ha, pre-emergence): 100% | pest or weed control at 320 g/ha (POLCO [6]): 80% | pest or weed control at 320 g/ha (STEME [7]; Stellaria media, 504 h, Dosage 320 g/ha, pre-emergence): 90% | Herbicidal efficacy against STEME (STEME [7]; [19]): 90 | Herbicidal efficacy against VIOTR (VIOTR [8]; Table V5, pre-emergence): 100 | Herbicidal efficacy against VIOTR (VIOTR [8]; Table V8, pre-emergence): 100 | pest or weed control at 320 g/ha (VIOTR [8]; Viola tricolor, 504 h, Dosage 320 g/ha, pre-emergence): 100% | Herbicidal efficacy against VERPE (VERPE [9]; [19]): 100 | pest or weed control at 320 g/ha (VERPE [9]; Veronica persica, 504 h, Dosage 320 g/ha, pre-emergence): 100% | pest or weed control at 80 g/ha (ALOMY): 80% | pest or weed control at 80 g/ha (AVEFA): 80% | pest or weed control at 80 g/ha (ECHCG [10]): 90% | pest or weed control at 80 g/ha (SETVI [11]): 90% | pest or weed control at 80 g/ha (ABUTH [12]): 90% | pest or weed control at 80 g/ha (AMARE [13]): 100% | Herbicidal efficacy against MATIN (MATIN [14]; [20]): 100 | pest or weed control at 80 g/ha (MATIN [14]; Tripleurospermum inodorum, 504 h, post-emergence, dosage 80 g/ha, visual assessment about 3 weeks after treatment vs untreated controls, read-out: Post-emergence action against MATIN (herbicidal action in percent)): 100% | pest or weed control at 80 g/ha (PHBPU): 100% | pest or weed control at 80 g/ha (POLCO [15]): 80% | pest or weed control at 80 g/ha (STEME [16]): 100% | Herbicidal efficacy against VIOTR (VIOTR [17]; [20]): 100 | pest or weed control at 80 g/ha (VIOTR [17]; Viola tricolor, 504 h, post-emergence, dosage 80 g/ha): 100% | pest or weed control at 80 g/ha (VERPE [18]): 100%
